± gives the expanded uncertainty stated by the source.
Details: for electrical conductivity / mass density / viscosity: 101.33 kPa, Liquid; for electrical conductivity: Alternating current cell with electrodes; for mass density: Pycnometric method; for viscosity: Capillary tube (Ostwald / Ubbelohde) method; for Triple point temperature / Glass transition temperature: DTA

SMILES: CCCC[n+]1ccc(C)cc1.O=S(=O)([N-]S(=O)(=O)C(F)(F)F)C(F)(F)F
- electrical conductivity (278.15 K): 0.124 ± 0.003 S/m
- electrical conductivity (283.15 K): 0.166 ± 0.003 S/m
- mass density (283.15 K): 1432.8 ± 0.8 kg/m3
- electrical conductivity (288.15 K): 0.215 ± 0.004 S/m
- mass density (288.15 K): 1428.4 ± 0.8 kg/m3
- electrical conductivity (293.15 K): 0.273 ± 0.006 S/m
- mass density (293.15 K): 1423.4 ± 0.8 kg/m3
- electrical conductivity (298.15 K): 0.341 ± 0.007 S/m
- viscosity (298.15 K): 55.14 ± 1.2 mPa·s
- mass density (298.15 K): 1418.7 ± 0.8 kg/m3
- electrical conductivity (303.15 K): 0.419 ± 0.009 S/m
- viscosity (303.15 K): 44.2 ± 0.95 mPa·s
- mass density (303.15 K): 1414 ± 0.8 kg/m3
- electrical conductivity (308.15 K): 0.509 ± 0.01 S/m
- viscosity (308.15 K): 35.85 ± 0.77 mPa·s
- mass density (308.15 K): 1409.3 ± 0.8 kg/m3
- electrical conductivity (313.15 K): 0.6 ± 0.012 S/m
- viscosity (313.15 K): 29.61 ± 0.63 mPa·s
- mass density (313.15 K): 1404.7 ± 0.8 kg/m3
- electrical conductivity (318.15 K): 0.702 ± 0.014 S/m
- viscosity (318.15 K): 24.77 ± 0.53 mPa·s
- mass density (318.15 K): 1400.2 ± 0.8 kg/m3
- electrical conductivity (323.15 K): 0.817 ± 0.017 S/m
- viscosity (323.15 K): 20.85 ± 0.44 mPa·s
- mass density (323.15 K): 1395.8 ± 0.9 kg/m3
- electrical conductivity (328.15 K): 0.941 ± 0.019 S/m
- viscosity (328.15 K): 17.86 ± 0.38 mPa·s
- mass density (328.15 K): 1391.3 ± 0.9 kg/m3
- electrical conductivity (333.15 K): 1.07 ± 0.022 S/m
- viscosity (333.15 K): 15.37 ± 0.33 mPa·s
- mass density (333.15 K): 1386.9 ± 0.9 kg/m3
- electrical conductivity (338.15 K): 1.21 ± 0.024 S/m
- viscosity (338.15 K): 13.42 ± 0.28 mPa·s
- mass density (338.15 K): 1382.5 ± 0.9 kg/m3
- viscosity (343.15 K): 11.65 ± 0.25 mPa·s
- viscosity (348.15 K): 10.15 ± 0.22 mPa·s
- viscosity (353.15 K): 8.89 ± 0.19 mPa·s
- viscosity (358.15 K): 7.94 ± 0.17 mPa·s
- Triple point temperature (Crystal 1): 292.4 ± 0.5 K
- Triple point temperature (Crystal 2): 242.2 ± 0.5 K
- Triple point temperature (Crystal 3): 235.8 ± 0.5 K
- Glass transition temperature: -78 ± 3 °C

SMILES: CC[n+]1ccc(C)cc1.O=S(=O)([N-]S(=O)(=O)C(F)(F)F)C(F)(F)F
- electrical conductivity (283.15 K): 0.424 ± 0.009 S/m
- mass density (283.15 K): 1505.2 ± 0.9 kg/m3
- electrical conductivity (288.15 K): 0.525 ± 0.011 S/m
- mass density (288.15 K): 1501 ± 0.9 kg/m3
- electrical conductivity (293.15 K): 0.638 ± 0.013 S/m
- mass density (293.15 K): 1496.1 ± 0.9 kg/m3
- electrical conductivity (298.15 K): 0.763 ± 0.015 S/m
- viscosity (298.15 K): 32.75 ± 0.69 mPa·s
- mass density (298.15 K): 1492 ± 0.9 kg/m3
- electrical conductivity (303.15 K): 0.901 ± 0.018 S/m
- viscosity (303.15 K): 27.31 ± 0.58 mPa·s
- mass density (303.15 K): 1487.7 ± 0.9 kg/m3
- electrical conductivity (308.15 K): 1.05 ± 0.021 S/m
- viscosity (308.15 K): 23.1 ± 0.49 mPa·s
- mass density (308.15 K): 1483 ± 0.9 kg/m3
- electrical conductivity (313.15 K): 1.21 ± 0.024 S/m
- viscosity (313.15 K): 19.69 ± 0.42 mPa·s
- mass density (313.15 K): 1478.3 ± 0.9 kg/m3
- electrical conductivity (318.15 K): 1.38 ± 0.028 S/m
- viscosity (318.15 K): 16.95 ± 0.36 mPa·s
- mass density (318.15 K): 1473.4 ± 0.9 kg/m3
- electrical conductivity (323.15 K): 1.55 ± 0.031 S/m
- viscosity (323.15 K): 14.66 ± 0.31 mPa·s
- mass density (323.15 K): 1468.8 ± 0.9 kg/m3
- electrical conductivity (328.15 K): 1.75 ± 0.035 S/m
- viscosity (328.15 K): 12.85 ± 0.27 mPa·s
- mass density (328.15 K): 1464.4 ± 0.9 kg/m3
- electrical conductivity (333.15 K): 1.96 ± 0.039 S/m
- viscosity (333.15 K): 11.34 ± 0.24 mPa·s
- mass density (333.15 K): 1459.9 ± 0.9 kg/m3
- electrical conductivity (338.15 K): 2.17 ± 0.044 S/m
- viscosity (338.15 K): 10.1 ± 0.21 mPa·s
- mass density (338.15 K): 1455.1 ± 0.9 kg/m3
- viscosity (343.15 K): 9.07 ± 0.19 mPa·s
- viscosity (348.15 K): 8.19 ± 0.17 mPa·s
- viscosity (353.15 K): 7.43 ± 0.16 mPa·s
- viscosity (358.15 K): 6.76 ± 0.14 mPa·s
- viscosity (363.15 K): 6.19 ± 0.13 mPa·s
- Triple point temperature (Crystal 1): 291 ± 0.5 K
- Triple point temperature (Crystal 2): 278.2 ± 0.5 K
- Glass transition temperature: -74.5 ± 3 °C

— the NIST ThermoML archive (doi:10.1021/je3004645)
